The values below are quoted from earlier work in US8338346B2, “Perfume compositions comprising functional perfume components” (The Procter & Gamble Company, priority 2008, dated 2012).

The conditions of data set [1]: odor detection threshold; approximate reported values.
The conditions of data set [2]: approximate reported values; unit inferred.

As for `C=C(C)C1CC=C(C)CC1` [D-Limonene, 1-methyl-4-isopropenyl-1-cyclohexene], the ODT in data set [1] is 204 ppb.
Turning to `CC(=O)OCCCCCCC(C)C` [Iso-Nonyl Acetate, iso-nonyl acetate], in data set [2], the Vapor pressure was 0.11 mmHg. Besides, the ODT in data set [1] is 12 ppb.
With `C=CC(C)(O)CCC=C(C)C` (centres unmarked) [Linalool, 3-hydroxy-3,7-dimethyl-1,6 octadiene], the Vapor pressure in data set [2] is 0.05 mmHg. In data set [1], the ODT was 22 ppb.
